“Also recorded” adds a separate entry of the source.
Assays:
[1] = tested on: high-fat diet-induced NASH in C57BL/6 mice; test: High fat diet-induced NAFLD/NASH in mice, prevention; format: in vivo, mouse; conditions: for liver score (NASH histology): 100 mg/kg/day from start of high-fat diet, vs vehicle (DHCQ P<0.001, HCQ P<0.05)
Procedure: To evaluate the effect of DHCQ and HCQ on an animal model of non-alcoholic fatty liver disease (NAFLD) which can lead to the development of NASH, C57BL/6 mice (8 per group) were fed a high-fat “western-style” diet (60% caloric content from fat; Taconic) for 6 weeks. The mice were asymptomatic throughout this time, but were developing a pre- or early-disease state. The mice were treated, starting at the time of initiation of the high-fat diet, with HCQ (100 mg/kg/day), DHCQ (100 mg/kg/day), or vehicle control, to prevent the development of NAFLD and NASH. After 6 weeks of treatment with DHCQ, HCQ and vehicle (control) while on a high-fat diet, blood was collected and mice sacrificed for histological analysis of liver pathology. Livers from the mice in each treatment group were fixed, embedded, sectioned, stained with H&E, representative micrographs are presented in FIG. 7A (both 10× and 20× magnification), “liver scores” determined using an established scoring system for NASH (Brunt et al, Nonalcoholic steatohepatitis: a proposal for grading and staging the histological lesions, American J. Gastroenterology, 1999, 94(9):2467-74).

[2] = tested on: TNF production by human peripheral blood mononuclear cells (PBMCs); test: LPS-stimulated TNF production by human PBMCs (ELISA); format: cell-based; conditions: LPS 10 μg/ml, 10, 25 and 50 μM compound, 14 hours; vs LPS alone
Procedure: DHCQ reduced the production of the pro-inflammatory cytokine tumor necrosis factor (TNF) by human peripheral blood mononuclear cells (PBMCs) in response to pro-inflammatory lipopolysaccharide (LPS) stimulation (FIG. 10). Human PBMCs were isolated using Ficoll, 200,000 PBMCs were added to each well of a 96-well plate, and stimulated with LPS 10 μg/ml in the presence of a range of concentrations from 0 to 50 μM DHCQ, or 0 to 50 μM HCQ, for 14 hours, following which culture supernatants were collected and TNF measured by ELISA. Assays were run in triplicate.
Isolation of human PBMCs and monocytes. The Ficoll-Paque™ Plus (Cat; 17-1440-03GE Healthcare) was used to isolate human peripheral blood mononuclear cells (PBMCs) from blood collected from healthy donors. For cell culture, the isolated PBMCs were resuspended in culture medium (RPM11640) containing 10% FCS and antibiotics (penicillin 100 IU/mL and streptomycin 100 μg/mL). Monocyte Isolation Kit II (Cat; 130-091-153, Miltenyi Biotec) was used to isolate monocytes from the suspension of human PBMCs.
Stimulation assays. […]
Readout. […] For each assay, a parallel well treated identically was prepared and level of LDH measured to assure no evidence of cell death was induced by drug treatment.

[3] = LC/MS tissue levels of HCQ and DHCQ in plasma, retina and synovium of dosed mice; format: in vivo, mouse; conditions: for accumulation in the retina: 100 mg/kg/day oral gavage, LC/MS
From the text: The major risk to long term administration of hydroxychloroquine is retinal accumulation and subsequent ocular toxicity (Terahi et al, 2008. Semin Opthal. (3):201-208. PMID). We sought to evaluate the retinal deposition of HCQ and DHCQ. To do so, we performed mass spectrometric analysis of drug and metabolite content in retina, in operated side and non-operated side synovial tissue, and in plasma derived from mice treated with either HCQ or DHCQ. […] The indicated statistical comparisons between the levels measured in the indicated tissue from each group were compared by two-tailed T test (*P<0.05, **P<0.01, ***P<0.001).
Mice, dosing with HCQ and DHCQ, isolation of specific tissues, and mass spectrometry measurement of HCQ and DHCQ levels in tissue samples. C57BL6 (B6) mice (n=5 per group) were treated with HCQ (100 mg/kg/day) or DHCQ (100 mg/kg/day) by oral gavage for 3 months. At experimental termination (3 months) mice were sacrificed and eyes removed under dissecting microscope. Curved microdisecting scissors was used to cut along the cornea and sclera, remove and discard the lens and visceral leaving the neural retina with eye shell to be placed in PBS and homogenized followed by centrifugation. Synovium was microdissected from the operated knee or the contralateral non-operated knee, normalized by weight of tissue, and placed in HPLC grade water before being homogenized and centrifuged. Plasma was obtained by tail bleeding. Plasma and tissue samples were precipitated with acetonitrile and levels of HCQ, DHCQ, BDCQ were evaluated by liquid chromatography/mass spectrometry (LC/MS) at Climax Laboratories, Inc. (San Jose, Calif.). The LC/MS analysis was conducted by using Shimazu 10A HPLC system (Shimadzu Scientific Instruments, Inc., Pleasanton, Calif.) with ACE C18, 50×2.1 HPLC column and ABSciex API-4000 Mass Spectrometer (ABSciex Corp. Foster City, Calif.) with Electrospray Ionization (ESI) and negative Multiple Reaction Monitoring (MRM) Scan. A gradient elution was used in separating the test compound with a mobile phase A (0.1% Formic Acid in 5 mM of NH4AC) and B (0.1% Formic acid in acetonitrile).

[4] = tested on: experimental autoimmune encephalomyelitis (EAE) in SJL mice; test: EAE mouse model for MS, prevention (treatment from immunization); format: in vivo; conditions: for EAE clinical score (development and severity): 100 mg/kg/day oral gavage from immunization, 50 mg/kg/day from day 8, vs vehicle or BDCQ, P<0.05
From the text: Experimental autoimmune encephalomyelitis (EAE), a mouse model for MS, was induced in SJL mice (n=10 per group) by immunization with proteolipid protein peptide 139-151 (PLP 139-151) in CFA. […] Starting on day 8, mice were scored daily for the severity of EAE.

[5] = tested on: collagen-induced arthritis (CIA) in DBA/1 mice; test: Collagen-induced arthritis (CIA) mouse model for RA, treatment from first immunization; format: in vivo; conditions: 50 mg/kg/day oral gavage, 100 mg/kg/day loading day 14-21; vs vehicle, Mann Whitney U test P<0.05
[6] = 100 mg/kg/day, 6 weeks, vs vehicle

With `CC(CCCNCCO)Nc1ccnc2cc(Cl)ccc12` (stereo not drawn) [DHCQ, desethylhydroxychloroquine] the “liver score (NASH histology)” value ([1]; 6 weeks) was “statistically reduced”, the “serum ALT” value [1, 6] was “prevents and reduces abnormal elevations” and the “serum AST” value [1, 6] was “prevents and reduces abnormal elevations”. For the same compound, the “liver score, AST and ALT compared to HCQ” value ([1]; P<0.05 two-tailed T test) was “statistically superior activity to HCQ”, the TNF production [2] was “reduced PMBC TNF production” and the “accumulation in the retina” value ([3]; 3 months) was “only low-level accumulation in the retina”. For the same compound, the “level in surgical joint synovial tissue relative to retina” value ([3]; 100 mg/kg/day, 3 months) was “accumulated at higher levels in the surgical joint synovial tissue relative to the low levels measured in the retina”, the “level in retina relative to plasma” value ([3]; DHCQ in both HCQ and DHCQ dosed mice) was “much lower levels in plasma as compared to the retina” and the “EAE clinical score (development and severity)” value [4] was “prevented development of and reduced the severity of EAE”. The “EAE disease activity compared to HCQ treatment” value ([4]; at several timepoints, P<0.05 Mann Whitney U test) was “statistically superior activity” and the “arthritis score (development of disease and disease activity)” value [5] was “statistically reduced development of disease and reduced disease activity; also recorded: statistically lower”.
In the case of `CCN(CCO)CCCC(C)Nc1ccnc2cc(Cl)ccc12` (stereo not drawn) [HCQ, hydroxychloroquine], the “liver score (NASH histology)” value ([1]; 6 weeks) is reported as “statistically reduced”, the TNF production [2] is reported as “reduced PMBC TNF production” and the “accumulation in the retina” value ([3]; 3 months) is reported as “accumulated a high levels in the retina”. For the same compound, the “level in surgical joint synovial tissue relative to retina” value ([3]; 100 mg/kg/day, 3 months) was “accumulated at high levels in the retina relative to the low levels measured in the surgical joint synovial tissue”, the Kp at 3 months ([3]; C57BL6, mouse, retina/plasma, oral, HCQ in HCQ dosed mice, 100 mg/kg/day, 3 months, read-out: level in retina/level in plasma) was roughly 8.5 and the “EAE clinical score (development and severity)” value [4] was “prevented development of and reduced the severity of EAE”. For the same compound, the “arthritis score (development of disease and disease activity)” value [5] was “statistically reduced development of disease and reduced disease activity; also recorded: statistically lower”.

— patent US9931335B2, “Desethylhydroxychloroquine for the treatment of diseases associated with inflammation” (The Board of Trustees of the Leland Stanford Junior …, priority 2013, dated 2018)
